Measurements published in patent US6984399B2 (Lek Pharmaceuticals d.d., priority 1999, dated 2006).

How the values were obtained:
[1] = particle size and BET specific surface area of lovastatin crystals; assay type: physicochemical; details: for d(0.9) / d(0.1) / d(0.5): particle size; for d(0.9): 90% (volume) of particles below; for Spec. Pov.: specific surface area, BET method
[2] = dissolution of lovastatin samples of varying particle size in water (Table I); assay type: physicochemical; details: suspension in 0.1% Tween 80 diluted 100 times
Text: At first we have prepared three samples of lovastatin* with varying particle size and compared dissolution** of those samples in water (Table I).

[3] = oral, cited from earlier work
[4] = room temperature; cited from earlier work

| SMILES | d(0.9) [1] [μm] | d(0.1) [1] [μm] | d(0.5) [1] [μm] | Spec. Pov. [1] [m^2/g] | concentration of dissolved lovastatin ([2]; time 0 min) [ng/mL] | concentration of dissolved lovastatin ([2]; time 1 min) [ng/mL] | concentration of dissolved lovastatin ([2]; time 3 min) [ng/mL] | concentration of dissolved lovastatin ([2]; time 5 min) [ng/mL] | concentration of dissolved lovastatin ([2]; time 10 min) [ng/mL] | concentration of dissolved lovastatin ([2]; time 30 min) [ng/mL] | concentration of dissolved lovastatin ([2]; time 50 min) [ng/mL] | time to peak concentration in blood of active form ([3]; post-dose) [h] | share of total dose that crosses the intestinal membrane [3] [%] | volume of water required to dissolve 20 mg [4] |
| --- | --- | --- | --- | --- | --- | --- | --- | --- | --- | --- | --- | --- | --- | --- |
| CC[C@H](C)C(=O)O[C@H]1C[C@@H](C)C=C2C=C[C@H](C)[C@H](CC[C@@H]3C[C@@H](O)CC(=O)O3)[C@H]21 [Example 6, lovastatin] | 22 |  |  |  |  |  |  |  |  |  |  |  |  |  |
| CC[C@H](C)C(=O)O[C@H]1C[C@@H](C)C=C2C=C[C@H](C)[C@H](CC[C@@H]3C[C@@H](O)CC(=O)O3)[C@H]21 [B, lovastatin] | 31 | 1.4 | 7.9 | 2.2 | 0 | 500 | 680 | 710 | 780 | 870 | 950 |  |  |  |
| CC[C@H](C)C(=O)O[C@H]1C[C@@H](C)C=C2C=C[C@H](C)[C@H](CC[C@@H]3C[C@@H](O)CC(=O)O3)[C@H]21 [Example 4, lovastatin] | 163 |  |  |  |  |  |  |  |  |  |  |  |  |  |
| CC[C@H](C)C(=O)O[C@H]1C[C@@H](C)C=C2C=C[C@H](C)[C@H](CC[C@@H]3C[C@@H](O)CC(=O)O3)[C@H]21 [Example 5, lovastatin] | 77 |  |  | 1.3 |  |  |  |  |  |  |  |  |  |  |
| CC[C@H](C)C(=O)O[C@H]1C[C@@H](C)C=C2C=C[C@H](C)[C@H](CC[C@@H]3C[C@@H](O)CC(=O)O3)[C@H]21 [lovastatin] |  |  |  |  |  |  |  |  |  |  |  | 2.8 | 31 | about 15 litres |
| CC[C@H](C)C(=O)O[C@H]1C[C@@H](C)C=C2C=C[C@H](C)[C@H](CC[C@@H]3C[C@@H](O)CC(=O)O3)[C@H]21 [C, lovastatin] | 163 | 17 | 54 | 0.7 | 0 | 250 | 300 | 400 | 560 | 820 | 940 |  |  |  |
| CC[C@H](C)C(=O)O[C@H]1C[C@@H](C)C=C2C=C[C@H](C)[C@H](CC[C@@H]3C[C@@H](O)CC(=O)O3)[C@H]21 [A, lovastatin] | 22 | 1.6 | 6 | 3.3 | 0 | 650 | 770 | 780 | 810 | 880 | 900 |  |  |  |
